Molecular target: ATP-dependent translocase ABCB1 (Homo sapiens, UniProt P08183)
Test: TP_TRANSPORTER: intracellular accumulation in CEM/MTX R cells
Format: functional, cell-based

Chain of ATP-dependent translocase ABCB1 (P08183 whole entry): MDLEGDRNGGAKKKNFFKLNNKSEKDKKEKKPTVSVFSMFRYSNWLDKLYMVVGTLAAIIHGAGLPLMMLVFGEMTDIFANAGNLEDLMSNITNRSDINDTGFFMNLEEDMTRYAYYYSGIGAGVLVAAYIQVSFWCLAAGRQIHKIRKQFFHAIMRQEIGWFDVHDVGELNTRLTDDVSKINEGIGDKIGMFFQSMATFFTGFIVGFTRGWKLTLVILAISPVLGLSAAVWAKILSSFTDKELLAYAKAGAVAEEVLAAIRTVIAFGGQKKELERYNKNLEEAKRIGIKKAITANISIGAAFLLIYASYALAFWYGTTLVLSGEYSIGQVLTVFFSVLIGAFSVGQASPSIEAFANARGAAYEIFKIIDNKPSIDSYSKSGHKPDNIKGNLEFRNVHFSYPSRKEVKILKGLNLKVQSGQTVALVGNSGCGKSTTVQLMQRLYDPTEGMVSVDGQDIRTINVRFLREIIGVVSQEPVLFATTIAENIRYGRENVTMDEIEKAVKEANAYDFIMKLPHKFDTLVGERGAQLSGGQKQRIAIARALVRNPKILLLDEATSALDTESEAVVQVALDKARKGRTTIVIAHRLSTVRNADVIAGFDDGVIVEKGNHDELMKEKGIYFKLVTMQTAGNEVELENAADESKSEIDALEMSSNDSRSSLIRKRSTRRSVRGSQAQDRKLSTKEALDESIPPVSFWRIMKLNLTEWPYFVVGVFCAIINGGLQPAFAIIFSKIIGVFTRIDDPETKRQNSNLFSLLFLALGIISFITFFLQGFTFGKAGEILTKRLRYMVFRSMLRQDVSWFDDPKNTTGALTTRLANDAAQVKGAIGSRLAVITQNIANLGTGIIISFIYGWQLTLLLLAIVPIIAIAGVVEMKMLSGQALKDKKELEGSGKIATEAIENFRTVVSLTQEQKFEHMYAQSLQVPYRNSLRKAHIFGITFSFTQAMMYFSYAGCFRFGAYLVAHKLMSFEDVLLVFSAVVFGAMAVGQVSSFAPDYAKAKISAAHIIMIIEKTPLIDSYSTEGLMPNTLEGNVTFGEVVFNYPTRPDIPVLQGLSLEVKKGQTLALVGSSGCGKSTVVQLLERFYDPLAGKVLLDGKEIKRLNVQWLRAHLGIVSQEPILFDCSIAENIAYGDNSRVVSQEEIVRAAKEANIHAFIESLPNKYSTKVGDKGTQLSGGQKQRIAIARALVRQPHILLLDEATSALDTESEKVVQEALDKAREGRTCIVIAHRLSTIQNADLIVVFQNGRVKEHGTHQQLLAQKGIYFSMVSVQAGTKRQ

Activity: substrate [+]
SMILES: CN(Cc1cnc2nc(N)nc(N)c2n1)c1ccc(C(=O)N[C@@H](CCC(=O)O)C(=O)O)cc1 [METHOTREXATE]
